Experimental data published in patent publication US6790968B1, “Substance FKI-0076 and process for producing the same” (The Kitasato Institute, priority 2002, dated 2004).
Values after ≈ are worked out from the molar mass of the structure shown.

Experiments:
Assay type in all cases: cell-based
Candida albicans KF1 [1] = assay: Enhanced activity of azole antifungal agent, paper disc method; details: 100 μg, 27° C., 24 hours
Procedure: (§1) Enhanced activity of azole antifungal agent is determined by the following method. Candida albicans KF1 and Saccharomyces cerevisiae KF26 (ATCC 9763) were used. Candida albicans KF1 was cultured in Waksman broth (glucose 2.0%, peptone 0.5%, meat extract 0.5%, and NaCl 0.5%, pH 7.0) and Saccharomyces cerevisiae KF26 was cultured in potato broth (glucose 1.0%, peptone 0.5% and potato extract 100 ml). Both strains were cultured at 27° C. for 40 hours. Subsequently, each strain was inoculated in GY agar medium (glucose 1.0%, yeast extract 0.5% and agar 0.8%, pH 6.0). […]. Miconazole (Sigma Chemicals, Inc.) was used as the azole antifungal agent. […] Activities were assessed using paper disc ([…]: 8 mm, ADVANTEC Inc.). After being cultured at 27° C. for 24 hours, the diameter of the inhibitory zone was measured for each organism.

[2] = system: Saccharomyces cerevisiae KF26 (ATCC 9763); assay: as above; details: 100 μg, 27° C., 24 hours
Procedure: as §1

[3] = system: Bacillus subtilis KB27 (ATCC6633); assay: MIC, microbroth dilution method; details: ATCC6633, 24 h
[4] = system: Staphylococcus aureus KB210 (ATCC6538P); assay: MIC, microbroth dilution method; details: 24 h
[5] = system: Micrococcus luteus KB40 (ATCC9431); assay: MIC, microbroth dilution method; details: ATCC9431, 24 h
[6] = system: Mycobacterium smegmatis KB42 (ATCC607); assay: MIC, microbroth dilution method; details: Mycolicibacterium smegmatis, ATCC607, 24 h
[7] = system: Escherichia coli KB176 (IF012734); assay: MIC, microbroth dilution method; details: 24 h
[8] = system: Pseudomonas aeruginosa KB105 (IF03080); assay: MIC, microbroth dilution method; details: 24 h
[9] = system: Xanthomonas campestris pv. oryzae KB88; assay: microbe, parasite or virus in culture; details: 24 h
[10] = system: Acholeplasma laidlawii KB174; assay: MIC, microbroth dilution method; details: KB174, 24 h
Pyricularia oryzae KB180 = assay: microbe, parasite or virus in culture; details: KB180, 48 h
[11] = system: Aspergillus niger KB103 (ATCC6275); assay: MIC, microbroth dilution method; details: ATCC6275, 48 h
[12] = system: Mucor racemosus KF223 (IF04581); assay: MIC, microbroth dilution method; details: 24 h
Candida albicans KF1 [13] = assay: MIC, microbroth dilution method; details: KF1, 24 h
[14] = system: Saccharomyces cerevisiae KF26 (ATCC9763); assay: MIC, microbroth dilution method; details: ATCC9763, 24 h
[15] = miconazole 0.1 μg/ml added to GY agar
[16] = without addition of miconazole, GY agar

COC(=O)c1cc(OC)cc(OC)c1C(=O)c1coc(CC(C)OC(C)=O)cc1=O (centres unmarked) [FKI-0076 substance]
inhibition ring (Candida albicans KF1 [1]; [15]): 15 mm | inhibitory ring (Candida albicans KF1 [1]; [16]): did not show an inhibitory ring | inhibition ring [2, 15]: 25 mm | inhibitory ring [2, 16]: did not show an inhibitory ring | MIC [3]: > 125 µg/mL | MIC [4]: > 125 µg/mL | MIC [5]: > 125 µg/mL | MIC [6]: > 125 µg/mL | MIC [7]: > 125 µg/mL | MIC [8]: > 125 µg/mL | MIC [9]: > 125 µg/mL | MIC [10]: 125 µg/mL (≈ 299 µM) | MIC (Pyricularia oryzae KB180): 125 µg/mL (≈ 299 µM) | MIC [11]: > 125 µg/mL | MIC [12]: > 125 µg/mL | MIC (Candida albicans KF1 [13]): > 125 µg/mL | MIC [14]: > 125 µg/mL
